# Source: the RepoRT retention time repository (doi:10.1016/j.jpba.2019.06.042)
# Test: Agilent ZORBAX Eclipse Plus C18, 150 × 2.1 mm, 3.5 µm, 0.2 mL/min, estimated dead time 1.7 min; A: water + 0.1% formic acid; B: acetonitrile; gradient (min/%B) 0/10 20/54 23/100 32/100
# Conditions: stereoisomer not certain
row,SMILES,LC retention time
1,CC(C)=CCCC(C)=CCc1c(O)c(CC2=C(O)C(C)(C)C(=O)C(C(=O)C(C)C)=C2O)c(O)c(C(=O)C(C)C)c1O,18.3 min
2,COc1ccc2ccc(=O)oc2c1CC=C(C)C,26 min
3,CC1OC(OCC2OC(Oc3c(-c4ccc(O)c(O)c4)oc4cc(O)cc(O)c4c3=O)C(O)C(O)C2O)C(O)C(O)C1O (stereo not given),9.7 min
4,COc1cc(C=CC(=O)O)cc(OC)c1O,15.2 min
5,CCC(C)C(=O)c1c(O)c(C)c(O)c(CC2=C(O)C(C)(C)C(=O)C(C(=O)C(C)C)=C2O)c1O (stereo not given),18.4 min
6,CC1OC(Oc2cc(O)c3c(=O)c(O)c(-c4ccc(O)cc4)oc3c2)C(O)C(O)C1O (stereo not given),10.2 min
7,CC(C)=CCc1c(O)cc(O)c2c(=O)c3ccc(O)c(O)c3oc12,28.8 min
8,COc1cc(O)c2c(=O)c(O)c(-c3ccc(O)cc3)oc2c1,12.5 min
9,COc1ccc2ccc(=O)oc2c1,22.7 min
10,O=c1c(O)c(-c2ccc(O)cc2)oc2cc(O)cc(O)c12,13.5 min
11,O=C(C=Cc1ccc(O)c(O)c1)OC1CC(O)(C(=O)O)CC(O)C1O (stereo not given),5.2 min
12,O=C(C=Cc1ccc(O)c(O)c1)OC1C(O)CC(O)(C(=O)O)CC1O (stereo not given),6.6 min
13,CC(C)(OC1OC(CO)C(O)C(O)C1O)C1CCC(CO)(C(O)CO)O1 (stereo not given),23.6 min
14,Cc1c(O)c(CC2=C(O)C(C)(C)C(=O)C(C(=O)C(C)C)=C2O)c(O)c(C(=O)C(C)C)c1O,20.1 min
15,O=c1c(O)c(-c2ccc(O)c(O)c2)oc2cc(O)cc(O)c12,10.6 min
16,COc1cc2oc(-c3ccccc3)c(OC)c(=O)c2c(OC)c1OC,15.9 min
17,O=c1c(OC2OC(CO)C(O)C(O)C2O)c(-c2ccc(O)c(O)c2)oc2cc(O)cc(O)c12 (stereo not given),8.8 min
18,CC1OC(Oc2c(-c3ccc(O)c(O)c3)oc3cc(O)cc(O)c3c2=O)C(O)C(O)C1O (stereo not given),9.9 min

row,SMILES,LC retention time
1,O=c1c(-c2c(O)cc(O)c3c(=O)cc(-c4ccc(O)cc4)oc23)c(-c2ccc(O)cc2)oc2cc(O)cc(O)c12,13.6 min
2,CC(C)=CCC1CC2(CC=C(C)C)C(=O)C(=C(O)c3ccccc3)C(=O)C(CC=C(C)C)(C2=O)C1(C)C (stereo not given),20.4 min
3,C=C(C)C1CC=C2C(O)CC(O)C(C)C2(C)C1 (stereo not given),31.6 min
4,O=C(O)C1(O)CC(O)C(O)C(O)C1 (stereo not given),3.1 min
5,CC1(C)C=Cc2c(cc(O)c3c(=O)c4cccc(O)c4oc23)O1,29 min
6,CCC(C)C(=O)c1c(O)c(C)c(OCC=C(C)CCC=C(C)C)c(C(C)=O)c1O (stereo not given),15.4 min
7,O=c1c2cccc(O)c2oc2cc(O)cc(O)c12,26.9 min
8,O=c1ccc2ccc(O)cc2o1,20.5 min
9,CC1(C)C=Cc2c(cc(O)c3c(=O)c4ccc(O)c(O)c4oc23)O1,15.6 min
10,O=C1c2c(O)cc(O)cc2OC(c2ccc(O)c(O)c2)C1O (stereo not given),11.6 min
11,O=C1CC(c2ccc(O)cc2)Oc2cc(O)cc(O)c21 (stereo not given),15 min
12,COc1c(-c2ccc(O)c(O)c2)oc2cc(O)cc(O)c2c1=O,12.2 min
13,O=c1cc(-c2ccc(O)c(-c3c(O)cc(O)c4c(=O)cc(-c5ccc(O)cc5)oc34)c2)oc2cc(O)cc(O)c12,14.9 min
14,O=C1c2c(O)cc(O)cc2OC(c2ccc(O)cc2)C1O (stereo not given),14 min
15,CC1=CC(=O)CC(C)(C)C1(O)C=CC(C)OC1OC(CO)C(O)C(O)C1O (stereo not given),10.3 min
16,O=C(O)C1OC(Oc2c(-c3ccc(O)c(O)c3)oc3cc(O)cc(O)c3c2=O)C(O)C(O)C1O (stereo not given),9.3 min
17,COc1ccc2c(=O)c3cccc(O)c3oc2c1,25.7 min
